Entries after “also recorded” stand apart in the source; their conditions may differ.
What was measured:
HMVEC = type: cell-based, human; details: 3 h
Experimental: (§1) N-Ac-CHAVC-NH2 (SEQ ID NO:10) and the control peptide N-Ac-CHGVC-NH2 (SEQ ID NO:20) were evaluated for possible cytotoxic effects on human microvascular endothelial (HMVEC; Clonetics), human umbilical vein endothelial (HUVEC; ATCC #CRL-1730), IAFp2 (human fibroblast cell line; Institute Armand-Frapier, Montreal, Quebec), WI-38 (human fibroblast cell line; ATCC #CCL-75), MDA-MB231 (human breast cancer cell line; ATCC #HTB-26), and PC-3 (human prostate cancer cell line; ATCC #CRL-1435) cells utilizing the MTT assay (Plumb et al., Cancer Res. 49:4435-4440, 1989). Neither of the peptides was cytotoxic at concentrations up to and including 100 μM. Similarly, neither of the peptides was capable of inhibiting the proliferation of the above cell lines at concentrations up to 100 μM, as judged by ^3H-thymidine incorporation assays.

WI-38 = type: cell-based, human; details: 3 h
Experimental: as §1

NRK cells = assay: Disruption of normal rat kidney (NRK) cell adhesion and E-cadherin immunostaining; type: cell-based; details: 1 mg/mL, 48 hours
Experimental: Within another such assay, the effect of a modulating agent on normal rat kidney (NRK) cells may be evaluated. According to a representative procedure, NRK cells (ATCC #1571-CRL) may be plated at 10-20,000 cells per 35 mm tissue culture flasks containing DMEM with 10% FCS and sub-cultured periodically (Laird et al., J. Cell Biol. 131:1193-1203, 1995). Cells may be harvested and replated in 35 mm tissue culture flasks containing 1 mm coverslips and incubated until 50-65% confluent (24-36 hours). At this time, coverslips may be transferred to a 24-well plate, washed once with fresh DMEM and exposed to modulating agent at a concentration of, for example, 1 mg/mL for 24 hours. Fresh modulating agent may then be added, and the cells left for an additional 24 hours. Cells may be fixed with 100% methanol for 10 minutes and then washed three times with PBS. Coverslips may be blocked for 1 hour in 2% BSA/PBS and incubated for a further 1 hour in the presence of mouse anti-E-cadherin antibody (Transduction Labs, 1:250 dilution). Primary and secondary antibodies may be diluted in 2% BSA/PBS. Following incubation in the primary antibody, coverslips may be washed three times for 5 minutes each in PBS and incubated for 1 hour with donkey anti-mouse antibody conjugated to fluorescein (diluted 1:200). Following further washes in PBS (3×5 min) coverslips can be mounted and viewed by confocal microscopy.
In the absence of modulating agent, NRK cells form characteristic tightly adherent monolayers with a cobblestone morphology in which cells display a polygonal shape. NRK cells that are treated with a modulating agent that disrupts E-cadherin mediated cell adhesion may assume a non-polygonal and elongated morphology (i.e., a fibroblast-like shape) within 48 hours of treatment with 1 mg/mL of modulating agent. Gaps appear in confluent cultures of such cells. In addition, 1 mg/mL of such a modulating agent reproducibly induces a readily apparent reduction in cell surface staining of E-cadherin, as judged by immunofluorescence microscopy (Laird et al., J. Cell Biol. 131:1193-1203, 1995), of at least 75% within 48 hours.
NRK cells (ATCC #1571-CRL) were plated at 10-20,000 cells per 35 mm tissue culture flasks containing DMEM with 10% FCS and sub-cultured periodically (Laird et al., J. Cell Biol. 131:1193-1203, 1995). Cells were harvested and replated in 35 mm tissue culture flasks containing […] coverslips and incubated until 50-65% confluent (24-36 hours). At this time, coverslips were transferred to a 24-well plate, washed once with fresh DMEM and exposed to cyclic peptide solutions (N-Ac-CHAVC-NH2 (SEQ ID NO:10) and N-Ac-CHGVC-NH2 (SEQ ID NO:20)) at a concentration of 1 mg/mL for 24 hours. Fresh peptide solutions were then added and the cells were left for an additional 24 hours. […]

Melanoma ME 115 cells = assay: Disruption of melanoma cell adhesion, pan-cadherin immunostaining; type: cell-based, human; details: 500 μg/mL, 48 hours
Experimental: Melanoma ME 115 cells (kindly provided by Meenhard Herlyn, Wistar Institute, Philadelphia, Pa.) were plated on glass coverslips and cultured for 24 hours in 50% keratinocyte growth medium (Clonetics, San Diego, Calif.) and 50% L15. Fresh medium containing the cyclic peptides (final concentration 500 μg/mL media) N-Ac-CHAVC-NH2 (SEQ ID NO:10) or N-Ac-CHGVC-NH2 (SEQ ID NO:20) was then added. Following 24 hours of culture in the presence of the peptides, the medium was removed and fresh medium containing the peptides was added. The cells were fixed 24 hours later with cold methanol and stored in phosphate buffered saline (PBS).
Coverslips were blocked for 1 hour in 3% ovalbumin/PBS and incubated for a further 1 hour in the presence of rabbit pan-cadherin antibody (Sigma Chemical Co., St. Louis, Mo.) diluted 1:500. Primary and secondary antibodies were diluted in PBS containing 6% normal goat serum. Following incubation in the primary antibody, coverslips were washed 3 times for 5 minutes each in PBS and incubated for 1 hour in goat anti-rabbit immunoglobulin G conjugated to fluorescein (Kiekegard and Perry, South San Francisco, Calif.) diluted 1:100. Following a further wash in PBS (3×5 minutes) coverslips were mounted in Vectashield (Vector Labs, Burlingame, Calif.) and viewed with a Zeiss infinity corrected microscope.

MDA-MB231 = type: cell-based, human; details: 3 h

Row | SMILES | IC50 (HMVEC) | IC50 (WI-38) | E-cadherin expression in NRK cells (immunofluorescence) (NRK cells) | effect on NRK cell adhesion (NRK cells) | cadherin staining in melanoma ME115 cells (Melanoma ME 115 cells) | effect on melanoma cell adhesion (Melanoma ME 115 cells) | IC50 (MDA-MB231)
1 | CC(=O)N[C@H]1CSSC[C@@H](C(N)=O)NC(=O)[C@H](C(C)C)NC(=O)[C@H](C)NC(=O)[C@H](Cc2c[nH]cn2)NC1=O [N-Ac-CHAVC-NH2, N-Ac-Cys-His-Ala-Val-Cys-NH2] | > 100 µM | > 100 µM | greatly reduced levels of E-cadherin | disrupted NRK cell adhesion; also recorded: retract from one another | absence of cell membrane staining and the appearance of bright intracellular vesicular staining; also recorded: cadherin is localized in intracellular vesicles | disrupts melanoma cell adhesion | > 100 µM
2 | CC(=O)N[C@H]1CSSC[C@@H](C(N)=O)NC(=O)[C@H](C(C)C)NC(=O)CNC(=O)[C@H](Cc2c[nH]cn2)NC1=O [N-Ac-CHGVC-NH2, reference compound] | > 100 µM | > 100 µM | expressed E-cadherin | had no affect on cell adhesion | displayed cadherin staining all over the cell membrane | – | > 100 µM
